Data as given in US20240050435A1, “METHODS FOR TREATING CANCER” (Washington University, priority 2022, published 2024).

What was measured:
ATR = ATR (Homo sapiens, UniProt Q13535); conditions: cited from earlier work
[1] = tested on: TP53-mutant hematopoietic stem cells (HSCs); assay: Mixed bone marrow chimeras (wildtype and R172H TP53 bone marrow); type: in vivo; conditions: mice with mixed wildtype / R172H TP53 bone marrow chimeras
Source text: To assess the impact of combination treatment on TP53-mutant hematopoietic stem cells (HSCs), mixed bone marrow chimeras transplanted with both wildtype and R172H TP53 bone marrow were established as illustrated in FIG. 13.

Chain of ATR (Q13535 whole entry): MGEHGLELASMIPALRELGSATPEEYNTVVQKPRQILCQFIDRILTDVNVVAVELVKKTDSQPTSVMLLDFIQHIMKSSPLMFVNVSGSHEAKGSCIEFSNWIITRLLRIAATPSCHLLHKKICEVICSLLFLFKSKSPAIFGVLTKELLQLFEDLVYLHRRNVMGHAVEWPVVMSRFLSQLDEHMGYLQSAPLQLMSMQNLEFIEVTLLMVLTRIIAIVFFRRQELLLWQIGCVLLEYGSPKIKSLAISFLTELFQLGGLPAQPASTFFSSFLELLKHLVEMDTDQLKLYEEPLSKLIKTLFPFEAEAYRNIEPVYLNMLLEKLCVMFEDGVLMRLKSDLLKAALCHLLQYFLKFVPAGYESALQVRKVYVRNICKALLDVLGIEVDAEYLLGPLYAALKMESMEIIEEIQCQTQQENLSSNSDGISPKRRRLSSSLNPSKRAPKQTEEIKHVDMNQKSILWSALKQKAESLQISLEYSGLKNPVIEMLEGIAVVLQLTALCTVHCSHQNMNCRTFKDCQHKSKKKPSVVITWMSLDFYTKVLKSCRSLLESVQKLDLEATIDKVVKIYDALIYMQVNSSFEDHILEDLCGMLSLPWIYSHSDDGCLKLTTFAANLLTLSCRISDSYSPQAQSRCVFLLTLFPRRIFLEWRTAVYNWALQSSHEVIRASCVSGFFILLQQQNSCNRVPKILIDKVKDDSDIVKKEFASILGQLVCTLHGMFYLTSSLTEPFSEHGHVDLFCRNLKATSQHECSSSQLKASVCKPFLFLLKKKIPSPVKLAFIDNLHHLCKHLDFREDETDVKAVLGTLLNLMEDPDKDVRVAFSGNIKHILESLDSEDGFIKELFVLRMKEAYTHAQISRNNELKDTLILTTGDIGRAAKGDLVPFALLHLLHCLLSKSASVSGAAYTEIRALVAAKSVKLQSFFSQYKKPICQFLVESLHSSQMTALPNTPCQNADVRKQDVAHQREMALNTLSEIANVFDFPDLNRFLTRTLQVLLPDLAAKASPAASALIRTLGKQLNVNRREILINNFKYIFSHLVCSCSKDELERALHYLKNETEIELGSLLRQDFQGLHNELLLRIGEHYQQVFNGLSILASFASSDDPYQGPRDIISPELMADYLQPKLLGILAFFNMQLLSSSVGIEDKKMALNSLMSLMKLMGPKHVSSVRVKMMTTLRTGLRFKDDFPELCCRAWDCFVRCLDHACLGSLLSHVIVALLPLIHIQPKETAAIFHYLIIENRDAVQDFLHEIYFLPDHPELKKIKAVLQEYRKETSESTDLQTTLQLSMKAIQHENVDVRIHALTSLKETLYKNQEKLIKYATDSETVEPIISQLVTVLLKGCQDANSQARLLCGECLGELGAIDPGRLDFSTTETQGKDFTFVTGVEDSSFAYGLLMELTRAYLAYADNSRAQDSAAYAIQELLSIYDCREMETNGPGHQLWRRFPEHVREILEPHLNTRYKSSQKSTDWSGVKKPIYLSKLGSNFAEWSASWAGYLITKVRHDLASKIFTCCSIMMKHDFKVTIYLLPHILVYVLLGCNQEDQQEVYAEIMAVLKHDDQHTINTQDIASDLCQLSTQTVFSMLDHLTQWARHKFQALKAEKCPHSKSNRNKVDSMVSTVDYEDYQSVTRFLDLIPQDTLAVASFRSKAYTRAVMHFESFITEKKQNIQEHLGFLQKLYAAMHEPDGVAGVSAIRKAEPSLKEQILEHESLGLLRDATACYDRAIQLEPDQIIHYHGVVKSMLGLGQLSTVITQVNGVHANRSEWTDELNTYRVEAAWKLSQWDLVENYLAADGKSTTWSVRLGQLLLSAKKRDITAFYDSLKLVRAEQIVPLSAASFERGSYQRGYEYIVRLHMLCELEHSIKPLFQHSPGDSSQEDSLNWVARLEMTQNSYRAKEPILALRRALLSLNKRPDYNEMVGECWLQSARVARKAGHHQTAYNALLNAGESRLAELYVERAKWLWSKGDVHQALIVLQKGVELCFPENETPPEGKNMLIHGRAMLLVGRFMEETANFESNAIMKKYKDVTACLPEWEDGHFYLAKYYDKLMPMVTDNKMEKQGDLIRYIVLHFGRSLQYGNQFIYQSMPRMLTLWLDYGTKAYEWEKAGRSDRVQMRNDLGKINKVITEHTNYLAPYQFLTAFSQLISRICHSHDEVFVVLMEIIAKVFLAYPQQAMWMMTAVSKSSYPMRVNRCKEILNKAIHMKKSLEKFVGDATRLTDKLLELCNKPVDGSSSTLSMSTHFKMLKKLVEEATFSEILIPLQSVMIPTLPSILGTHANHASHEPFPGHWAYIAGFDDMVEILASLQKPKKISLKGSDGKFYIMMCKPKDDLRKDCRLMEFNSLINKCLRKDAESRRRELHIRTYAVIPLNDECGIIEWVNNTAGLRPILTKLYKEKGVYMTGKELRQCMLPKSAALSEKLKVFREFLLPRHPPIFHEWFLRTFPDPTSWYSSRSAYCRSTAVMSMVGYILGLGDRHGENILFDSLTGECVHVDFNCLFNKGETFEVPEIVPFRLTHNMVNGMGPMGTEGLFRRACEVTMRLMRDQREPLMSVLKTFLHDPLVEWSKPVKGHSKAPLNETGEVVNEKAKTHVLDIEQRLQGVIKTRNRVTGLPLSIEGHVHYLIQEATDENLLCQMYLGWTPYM
Chain of ATR (Q8WXE1 whole entry partner): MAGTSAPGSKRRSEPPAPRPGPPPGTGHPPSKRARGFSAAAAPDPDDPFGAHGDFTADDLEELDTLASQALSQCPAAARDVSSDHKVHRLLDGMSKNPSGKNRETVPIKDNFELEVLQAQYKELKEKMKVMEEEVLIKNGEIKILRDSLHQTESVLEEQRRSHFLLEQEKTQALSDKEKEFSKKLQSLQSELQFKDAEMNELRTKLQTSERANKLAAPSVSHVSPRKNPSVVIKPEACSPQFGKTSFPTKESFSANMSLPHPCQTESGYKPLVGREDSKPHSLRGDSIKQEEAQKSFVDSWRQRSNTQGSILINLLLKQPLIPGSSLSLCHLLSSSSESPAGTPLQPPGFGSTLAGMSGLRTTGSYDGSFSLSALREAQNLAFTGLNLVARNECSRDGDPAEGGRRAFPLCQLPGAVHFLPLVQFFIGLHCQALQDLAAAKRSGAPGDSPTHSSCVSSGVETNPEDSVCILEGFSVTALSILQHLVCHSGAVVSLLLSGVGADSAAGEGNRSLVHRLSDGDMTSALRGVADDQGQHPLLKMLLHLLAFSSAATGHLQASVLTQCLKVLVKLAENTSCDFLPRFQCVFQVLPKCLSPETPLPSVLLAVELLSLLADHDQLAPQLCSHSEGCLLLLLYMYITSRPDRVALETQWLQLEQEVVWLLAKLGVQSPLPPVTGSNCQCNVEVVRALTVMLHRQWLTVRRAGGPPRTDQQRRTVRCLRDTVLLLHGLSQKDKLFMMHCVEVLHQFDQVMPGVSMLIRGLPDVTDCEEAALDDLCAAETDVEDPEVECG

## Cn1cncc1-c1c(F)cncc1NC(=O)c1c(N)nn2cc(F)cnc12 [M1774]
ATR
  inhibition of ATR signaling: potent and specific inhibitor of ATR signaling

## N.N.[Cl][Pt][Cl] [cis-platinum]
[1]
  effect on TP53-mutant HSCs: significant expansion of TP53-mutant HSCs
